# Reference: patent US6492384B1, “Imidazo (4,5-C) pyridine-4-one derivatives with factor XA inhibiting effect” (Merck Patent GmbH, priority 1998, dated 2002)
row,melting point [°C],SMILES
1,201 to 202,"Cc1nc(-c2ccc3ccc(Cn4ccc5nc(C(C)C)n(Cc6ccc7ccc(-c8noc(C)n8)cc7c6)c5c4=O)cc3c2)no1 [BC2, 2-isopropyl-3-[7-(5-methyl[1,2,4]oxadiazol-3-yl)naphth-2-ylmethyl]-5-[7-(5-methyl[1,2,4]oxadiazol-3-yl)naphth-2-ylmethyl]-3,5-dihydroimidazo[4,5-c]pyridin-4-one]"
2,172 to 173,"Cc1nc(-c2ccc(Cn3ccc4nc(C(C)C)n(Cc5ccc6ccc(-c7noc(C)n7)cc6c5)c4c3=O)cc2)no1 [BC3, 2-isopropyl-3-[7-(5-methyl[1,2,4]oxadiazol-3-yl)naphth-2-ylmethyl]-5-[4-(5-methyl[1,2,4]oxadiazol-3-yl)benzyl]-3,5-dihydroimidazo[4,5-c]pyridin-4-one]"
3,149 to 150,"Cc1nc(-c2ccc3ccc(Cn4c(C(C)C)nc5ccn(Cc6ccccc6-c6noc(C)n6)c(=O)c54)cc3c2)no1 [BC4, 2-isopropyl-3-[7-(5-methyl[1,2,4]oxadiazol-3-yl)naphth-2-ylmethyl]-5-[2-(5-methyl[1,2,4]oxadiazol-3-yl)benzyl]-3,5-dihydroimidazo[4,5-c]pyridin-4-one]"
4,112 to 113,"Cc1nc(-c2ccc3ccc(Cn4c(C(C)C)nc5ccn(Cc6ccccc6)c(=O)c54)cc3c2)no1 [BC5, 2-isopropyl-3-[7-(5-methyl[1,2,4]oxadiazol-3-yl)naphth-2-ylmethyl]-5-benzyl-5H-imidazo[4,5-c]pyridin-4-one]"
